According to patent US20210179600A1, “OXAZOLE AND THIAZOLE DERIVATIVES AS INHIBITORS OF ASK1” (Hepagene Therapeutics (HK) Limited, priority 2017, published 2021):

Molecular target: T1, Recombinant human ASK1 kinase (Homo sapiens, UniProt Q99683)
T1 construct: purchased Invitrogen Inc
T1 sequence (Q99683 1-1374): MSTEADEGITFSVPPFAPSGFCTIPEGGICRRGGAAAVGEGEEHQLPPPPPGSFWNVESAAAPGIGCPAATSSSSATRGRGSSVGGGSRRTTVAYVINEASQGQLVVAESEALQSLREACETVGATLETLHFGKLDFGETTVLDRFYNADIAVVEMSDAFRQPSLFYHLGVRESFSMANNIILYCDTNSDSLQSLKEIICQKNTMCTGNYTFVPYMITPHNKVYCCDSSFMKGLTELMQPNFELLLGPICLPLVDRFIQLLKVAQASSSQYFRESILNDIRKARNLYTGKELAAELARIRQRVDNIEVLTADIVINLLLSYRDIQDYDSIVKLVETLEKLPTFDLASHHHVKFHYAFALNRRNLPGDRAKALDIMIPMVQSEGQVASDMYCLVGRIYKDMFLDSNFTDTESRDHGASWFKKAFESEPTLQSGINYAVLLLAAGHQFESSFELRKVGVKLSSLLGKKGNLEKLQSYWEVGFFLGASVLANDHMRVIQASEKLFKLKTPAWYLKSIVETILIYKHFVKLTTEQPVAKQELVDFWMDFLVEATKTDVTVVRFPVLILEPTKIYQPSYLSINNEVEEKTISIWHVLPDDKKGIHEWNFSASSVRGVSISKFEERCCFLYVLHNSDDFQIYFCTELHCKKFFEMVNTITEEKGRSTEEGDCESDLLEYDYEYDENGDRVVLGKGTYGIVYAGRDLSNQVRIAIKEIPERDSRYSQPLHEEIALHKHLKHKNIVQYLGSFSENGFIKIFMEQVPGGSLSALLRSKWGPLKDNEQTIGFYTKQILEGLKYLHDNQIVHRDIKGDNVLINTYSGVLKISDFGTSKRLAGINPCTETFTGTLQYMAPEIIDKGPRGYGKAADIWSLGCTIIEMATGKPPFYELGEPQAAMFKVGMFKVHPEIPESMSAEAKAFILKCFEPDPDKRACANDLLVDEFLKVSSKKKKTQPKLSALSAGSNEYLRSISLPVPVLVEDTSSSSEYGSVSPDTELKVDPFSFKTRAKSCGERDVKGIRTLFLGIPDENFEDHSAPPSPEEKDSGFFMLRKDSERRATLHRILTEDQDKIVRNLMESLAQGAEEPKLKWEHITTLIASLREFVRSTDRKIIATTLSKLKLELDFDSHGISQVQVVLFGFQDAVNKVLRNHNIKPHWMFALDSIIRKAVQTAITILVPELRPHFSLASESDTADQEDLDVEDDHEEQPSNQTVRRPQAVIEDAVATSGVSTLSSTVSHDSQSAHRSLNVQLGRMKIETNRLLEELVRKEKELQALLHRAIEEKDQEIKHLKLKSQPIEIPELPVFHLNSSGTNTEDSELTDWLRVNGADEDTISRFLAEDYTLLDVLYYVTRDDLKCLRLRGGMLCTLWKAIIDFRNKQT
Assay: ASK1 kinase HTRF assay (KinEASE-STK)
Type: biochemical
Details: HTRF detection; 3 nM ASK1 kinase, 1 uM STK-substrate-biotin
Experimental: Reagents: Recombinant human ASK1 kinase was from Invitrogen Inc. HTRF KinEASE™-STK S3 kit was obtained from Cisbio (Bedford, Mass.). All other reagents were of the highest grade commercially available.
Assay: The assay measures the phosphorylation level of a biotinylatd peptide substrate by the ASK1 kinase using HTRF detection. ASK1 kinase assay is based on HTRF KinEASE™-STK manual from Cisbio. Test compound, 1 uM STK-substrate-biotin, 3 nM of ASK1 kinase are incubated with 1*Kinase buffer with 5 mM MgCl2 and 1 mM DTT. 250 nM Sa-XL 665(4*) and STK-antibody-Cryptate work solution are added to stop the reaction and phosphorylated peptide substrate is detected using Envision 2104 Multilabeled reader from PerkinElmer. The fluorescence is measured at 615 nm (Cryptate) and 665 nm (XL665) and a ratio of 665 nm/615 nm is calculated for each well. The resulting TR-FRET level (a ratio of 665 nm/615 nm) is proportional to the phosphorylation level of substrate.

EC50	SMILES
≤ 50 nM	C[C@H](CO)n1cnnc1-c1cccc(-c2ncc(-c3c(F)cc(F)cc3F)o2)n1 [Compound I-053]
≤ 50 nM	CC(C)n1cnnc1-c1cccc(-c2ncc(-c3ccc(N(C)C)cc3)o2)n1 [Compound I-057]
≤ 50 nM	CC(C)n1cnnc1-c1cccc(-c2ncc(-c3cccc(N(C)C)c3)o2)n1 [Compound I-058]
≤ 50 nM	C[C@H](CO)n1cnnc1-c1cccc(-c2ncc(-c3cccc(N(C)C)c3)o2)n1 [Compound I-059]
≤ 50 nM	CNc1ccc(-c2cnc(-c3cccc(-c4nncn4C(C)C)n3)o2)cc1 [Compound I-060]
≤ 50 nM	CNc1cccc(-c2cnc(-c3cccc(-c4nncn4C(C)C)n3)o2)c1 [Compound I-061]
≤ 50 nM	CNc1cccc(-c2cnc(-c3cccc(-c4nncn4[C@H](C)CO)n3)o2)c1 [Compound I-062]
≤ 50 nM	CC(C)n1cnnc1-c1cccc(-c2ncc(-c3cccc(N)c3)o2)n1 [Compound I-063]
≤ 50 nM	C[C@H](CO)n1cnnc1-c1cccc(-c2ncc(-c3cccc(N)c3)o2)n1 [Compound I-064]
≤ 50 nM	CC(C)n1cnnc1-c1cccc(-c2ncc(-c3ccc(N)cc3)o2)n1 [Compound I-065]
≤ 50 nM	C[C@H](CO)n1cnnc1-c1cccc(-c2ncc(-c3ccc(N)cc3)o2)n1 [Compound I-066]
≤ 50 nM	CSc1ccc(-c2cnc(-c3cccc(-c4nncn4C(C)C)n3)o2)cc1 [Compound I-067]
≤ 50 nM	CSc1cccc(-c2cnc(-c3cccc(-c4nncn4C(C)C)n3)o2)c1 [Compound I-068]
50 to 500 nM	COc1cccc(-c2cnc(-c3cccc(-c4nncn4C(C)C)n3)o2)c1 [Compound I-070]
50 to 500 nM	COc1ccc(-c2cnc(-c3cccc(-c4nncn4C(C)C)n3)o2)cc1 [Compound I-071]
≤ 50 nM	CC(C)n1cnnc1-c1cccc(-c2ncc(-c3ccccc3O)o2)n1 [Compound I-072]
≤ 50 nM	CC(C)n1cnnc1-c1cccc(-c2ncc(-c3cccc(O)c3)o2)n1 [Compound I-073]
≤ 50 nM	C[C@H](CO)n1cnnc1-c1cccc(-c2ncc(-c3cccc(O)c3)o2)n1 [Compound I-074]
≤ 50 nM	CC(C)Oc1cccc(-c2cnc(-c3cccc(-c4nncn4C(C)C)n3)o2)c1 [Compound I-076]
≤ 50 nM	CCCCCCOc1cccc(-c2cnc(-c3cccc(-c4nncn4[C@H](C)CO)n3)o2)c1 [Compound I-077]

EC50	SMILES
≤ 50 nM	COCCOc1cccc(-c2cnc(-c3cccc(-c4nncn4C(C)C)n3)o2)c1 [Compound I-078]
≤ 50 nM	CC(C)n1cnnc1-c1cccc(-c2ncc(-c3cccc(OC[C@@H]4CNCCO4)c3)o2)n1 [Compound I-079]
≤ 50 nM	CC(C)n1cnnc1-c1cccc(-c2ncc(-c3cccc(OC[C@@H]4CN(C)CCO4)c3)o2)n1 [Compound I-080]
50 to 500 nM	CC(C)n1cnnc1-c1cccc(-c2ncc(-c3ccc(OC(F)(F)F)cc3)o2)n1 [Compound I-081]
50 to 500 nM	CC(C)n1cnnc1-c1cccc(-c2ncc(-c3cccc(OC(F)(F)F)c3)o2)n1 [Compound I-082]
50 to 500 nM	CC(C)n1cnnc1-c1cccc(-c2ncc(-c3cccc(OC(F)F)c3)o2)n1 [Compound I-083]
≤ 50 nM	CC(C)n1cnnc1-c1cccc(-c2ncc(-c3ccc(OC(F)F)cc3)o2)n1 [Compound I-084]
50 to 500 nM	CC(C)n1cnnc1-c1cccc(-c2ncc(-c3ccccc3C(F)(F)F)o2)n1 [Compound I-085]
50 to 500 nM	CC(C)n1cnnc1-c1cccc(-c2ncc(-c3cccc(C(F)(F)F)c3)o2)n1 [Compound I-086]
50 to 500 nM	CC(C)n1cnnc1-c1cccc(-c2ncc(-c3cccc(C(F)F)c3)o2)n1 [Compound I-087]
50 to 500 nM	CC(C)n1cnnc1-c1cccc(-c2ncc(-c3ccccc3C#N)o2)n1 [Compound I-089]
50 to 500 nM	CC(C)n1cnnc1-c1cccc(-c2ncc(-c3cccc(C#N)c3)o2)n1 [Compound I-090]
50 to 500 nM	CC(C)n1cnnc1-c1cccc(-c2ncc(-c3ccc(C#N)cc3)o2)n1 [Compound I-091]
≤ 50 nM	COC(=O)c1cccc(-c2cnc(-c3cccc(-c4nncn4C(C)C)n3)o2)c1 [Compound I-092]
50 to 500 nM	COC(=O)c1ccc(-c2cnc(-c3cccc(-c4nncn4C(C)C)n3)o2)cc1 [Compound I-093]
≤ 50 nM	CC(C)n1cnnc1-c1cccc(-c2ncc(-c3ccc(C(=O)O)cc3)o2)n1 [Compound I-094]
50 to 500 nM	CC(C)n1cnnc1-c1cccc(-c2ncc(-c3ccc(C(N)=O)cc3)o2)n1 [Compound I-095]
≤ 50 nM	CSc1ccccc1-c1cnc(-c2cccc(-c3nncn3[C@H](C)CO)n2)o1 [Compound I-096]
≤ 50 nM	C[C@H](CO)n1cnnc1-c1cccc(-c2ncc(-c3cccc(S(C)(=O)=O)c3)o2)n1 [Compound I-097]
≤ 50 nM	C[C@H](CO)n1cnnc1-c1cccc(-c2ncc(-c3ccc(S(C)(=O)=O)cc3)o2)n1 [Compound I-098]

EC50	SMILES
≤ 50 nM	C[C@H](CO)n1cnnc1-c1cccc(-c2ncc(-c3cccc(S(N)(=O)=O)c3)o2)n1 [Compound I-099]
≤ 50 nM	C[C@H](CO)n1cnnc1-c1cccc(-c2ncc(-c3ccc(S(N)(=O)=O)cc3)o2)n1 [Compound I-100]
50 to 500 nM	CC(C)n1cnnc1-c1cccc(-c2ncc(-c3ccc4ccccc4c3)o2)n1 [Compound I-101]
≤ 50 nM	CC(C)n1cnnc1-c1cccc(-c2ncc(-c3ccc4c(c3)OCCO4)o2)n1 [Compound I-102]
50 to 500 nM	CC(C)n1cnnc1-c1cccc(-c2ncc(-c3ccc4c(c3)CCCC4)o2)n1 [Compound I-103]
50 to 500 nM	CC(C)n1cnnc1-c1cccc(-c2ncc(-c3cccc(-c4ccccc4)c3)o2)n1 [Compound I-104]
50 to 500 nM	CC(C)n1cnnc1-c1cccc(-c2ncc(-c3ccc(-c4ccccc4)cc3)o2)n1 [Compound I-105]
50 to 500 nM	CC(C)n1cnnc1-c1cccc(-c2ncc(-c3cccc(-c4ccccn4)c3)o2)n1 [Compound I-106]
≤ 50 nM	CC(C)n1cnnc1-c1cccc(-c2ncc(-c3cccc(-c4cccnc4)c3)o2)n1 [Compound I-107]
≤ 50 nM	CC(C)n1cnnc1-c1cccc(-c2ncc(-c3cccc(-c4ccncc4)c3)o2)n1 [Compound I-108]
≤ 50 nM	CC(C)n1cnnc1-c1cccc(-c2ncc(-c3cccc(C4CCOCC4)c3)o2)n1 [Compound I-109]
≤ 50 nM	CC(C)n1cnnc1-c1cccc(-c2ncc(-c3cccc(N4CCOCC4)c3)o2)n1 [Compound I-110]
≤ 50 nM	C[C@H](CO)n1cnnc1-c1cccc(-c2ncc(-c3cccc(N4CCOCC4)c3)o2)n1 [Compound I-111]
500 to 5000 nM	CC(C)n1cnnc1-c1cccc(-c2ncc(-c3ccc(N4CCOCC4)cc3F)o2)n1 [Compound I-112]
≤ 50 nM	CC(C)n1cnnc1-c1cccc(-c2ncc(-c3cccc(N4CCNCC4)c3)o2)n1 [Compound I-113]
≤ 50 nM	C[C@H](CO)n1cnnc1-c1cccc(-c2ncc(-c3cccc(N4CCNCC4)c3)o2)n1 [Compound I-114]
≤ 50 nM	CC(C)n1cnnc1-c1cccc(-c2ncc(-c3cccc(N4CCN(C)CC4)c3)o2)n1 [Compound I-115]
≤ 50 nM	C[C@H](CO)n1cnnc1-c1cccc(-c2ncc(-c3cccc(N4CCN(C)CC4)c3)o2)n1 [Compound I-116]
